Test results from patent publication US11691980B2, “Liphagal analog and multi-targeted kinase inhibitor containing liphagal or analog thereof” (TOHOKU UNIVERSITY, priority 2017, dated 2023).

Experiments:
Test in all cases: mobility shift assay
Type in all cases: biochemical
Erk1 = target: T1, Erk1 (Homo sapiens, UniProt P27361)
T1 construct: purchased Carna Biosciences

MNK1 = target: T2, MNK1 (Homo sapiens, UniProt Q9BUB5)
T2 construct: purchased Carna Biosciences

JAK3 = target: T3, JAK3 (Homo sapiens, UniProt P52333)
T3 construct: purchased Carna Biosciences

MAP3K1_Cascade = target: T4, MAP3K1_Cascade (Homo sapiens, UniProt Q13233)
T4 construct: purchased Carna Biosciences

CaMK2δ = target: T5, CaMK2δ (Homo sapiens, UniProt Q13557)
T5 construct: purchased Carna Biosciences

FES = target: T6, FES (Homo sapiens, UniProt P07332)
T6 construct: purchased Carna Biosciences

CK1y1 = target: T7, CK1y1 (Homo sapiens, UniProt Q9HCP0)
T7 construct: purchased Carna Biosciences

LYNb = target: T8, LYNb (Homo sapiens, UniProt P07948)
T8 construct: purchased Carna Biosciences
T8 sequence (P07948 1-491 isoform P07948-2): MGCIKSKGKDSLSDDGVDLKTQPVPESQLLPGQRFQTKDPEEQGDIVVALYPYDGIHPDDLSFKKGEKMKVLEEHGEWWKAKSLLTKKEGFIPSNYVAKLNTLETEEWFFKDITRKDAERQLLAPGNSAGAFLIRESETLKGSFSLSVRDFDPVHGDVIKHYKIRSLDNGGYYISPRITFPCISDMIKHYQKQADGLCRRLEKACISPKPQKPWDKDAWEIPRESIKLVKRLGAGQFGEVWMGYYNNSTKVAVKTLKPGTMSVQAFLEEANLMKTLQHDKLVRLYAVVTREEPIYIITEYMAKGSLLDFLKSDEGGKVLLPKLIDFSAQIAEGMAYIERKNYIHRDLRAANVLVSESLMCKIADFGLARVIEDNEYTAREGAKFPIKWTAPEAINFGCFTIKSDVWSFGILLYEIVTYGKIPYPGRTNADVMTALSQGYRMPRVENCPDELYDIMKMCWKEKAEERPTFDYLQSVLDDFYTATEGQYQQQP

AKT3 = target: T9, AKT3 (Homo sapiens, UniProt Q9Y243)
T9 construct: purchased Carna Biosciences

NuaK1 = target: T10, NuaK1 (Homo sapiens, UniProt O60285)
T10 construct: purchased Carna Biosciences
T10 sequence (O60285 whole entry): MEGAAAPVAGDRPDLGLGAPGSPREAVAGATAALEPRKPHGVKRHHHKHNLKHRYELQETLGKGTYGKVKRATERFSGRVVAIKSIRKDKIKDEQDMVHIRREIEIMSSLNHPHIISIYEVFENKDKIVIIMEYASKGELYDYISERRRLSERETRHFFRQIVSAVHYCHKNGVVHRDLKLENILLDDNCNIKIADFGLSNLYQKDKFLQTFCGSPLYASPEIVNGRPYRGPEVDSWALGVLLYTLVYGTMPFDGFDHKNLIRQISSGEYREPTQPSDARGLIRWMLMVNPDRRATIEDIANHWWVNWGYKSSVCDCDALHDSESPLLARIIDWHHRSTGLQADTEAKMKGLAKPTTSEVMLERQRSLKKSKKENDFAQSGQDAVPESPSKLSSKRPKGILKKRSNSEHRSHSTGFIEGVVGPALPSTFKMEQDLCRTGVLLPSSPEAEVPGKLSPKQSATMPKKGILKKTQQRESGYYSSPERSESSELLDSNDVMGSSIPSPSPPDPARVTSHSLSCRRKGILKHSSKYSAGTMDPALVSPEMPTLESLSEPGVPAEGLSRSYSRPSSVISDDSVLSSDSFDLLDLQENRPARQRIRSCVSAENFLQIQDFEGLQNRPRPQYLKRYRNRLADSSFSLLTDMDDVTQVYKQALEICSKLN

PDGF Ru(DB42V) = target: T11, PDGF Ru(DB42V) (Homo sapiens, UniProt P16234, D842V)
T11 construct: purchased Carna Biosciences

RSK1 = target: T12, RSK1 (Homo sapiens, UniProt Q15418)
T12 construct: purchased Carna Biosciences

DYRK3 = target: T13, DYRK3 (Homo sapiens, UniProt O43781)
T13 construct: purchased Carna Biosciences

FTI1 = target: T14, FTI1 (Homo sapiens, UniProt P17948)
T14 construct: purchased Carna Biosciences

PIK3CA/PIK3R1 = PIK3CA/PIK3R1 (Homo sapiens, UniProt P42336); parameters: purchased Carna Biosciences
Protocol: LG-1 (liphgal) at 10 μM was assessed for its inhibitory activity against 313 kinds of kinases by mobility shift assay or IMAP Assay™ (Carna Biosciences). Specifically, the assessment was performed by the IMAP Assay™ (Carna Biosciences) for SPRK1, PLK2, PKR, PKN1, PEK, IRAK1, and EKKα among the 313 kinds of kinases, and the assessment was performed by the mobility shift assay for all the other kinases. Inhibitory activity (% inhibition) against each kinase is represented by the size of a bubble on a protein kinase phylogenetic tree of FIG. 2.

KIT(V654A) = target: T15, KIT(V654A) (Homo sapiens, UniProt P10721, V654A)
T15 construct: purchased Carna Biosciences

PKACγ = target: T16, PKACγ (Homo sapiens, UniProt P22612)
T16 construct: purchased Carna Biosciences

PKD1 = target: T17, PKD1 (Homo sapiens, UniProt Q15139)
T17 construct: purchased Carna Biosciences
T17 sequence (Q15139 whole entry): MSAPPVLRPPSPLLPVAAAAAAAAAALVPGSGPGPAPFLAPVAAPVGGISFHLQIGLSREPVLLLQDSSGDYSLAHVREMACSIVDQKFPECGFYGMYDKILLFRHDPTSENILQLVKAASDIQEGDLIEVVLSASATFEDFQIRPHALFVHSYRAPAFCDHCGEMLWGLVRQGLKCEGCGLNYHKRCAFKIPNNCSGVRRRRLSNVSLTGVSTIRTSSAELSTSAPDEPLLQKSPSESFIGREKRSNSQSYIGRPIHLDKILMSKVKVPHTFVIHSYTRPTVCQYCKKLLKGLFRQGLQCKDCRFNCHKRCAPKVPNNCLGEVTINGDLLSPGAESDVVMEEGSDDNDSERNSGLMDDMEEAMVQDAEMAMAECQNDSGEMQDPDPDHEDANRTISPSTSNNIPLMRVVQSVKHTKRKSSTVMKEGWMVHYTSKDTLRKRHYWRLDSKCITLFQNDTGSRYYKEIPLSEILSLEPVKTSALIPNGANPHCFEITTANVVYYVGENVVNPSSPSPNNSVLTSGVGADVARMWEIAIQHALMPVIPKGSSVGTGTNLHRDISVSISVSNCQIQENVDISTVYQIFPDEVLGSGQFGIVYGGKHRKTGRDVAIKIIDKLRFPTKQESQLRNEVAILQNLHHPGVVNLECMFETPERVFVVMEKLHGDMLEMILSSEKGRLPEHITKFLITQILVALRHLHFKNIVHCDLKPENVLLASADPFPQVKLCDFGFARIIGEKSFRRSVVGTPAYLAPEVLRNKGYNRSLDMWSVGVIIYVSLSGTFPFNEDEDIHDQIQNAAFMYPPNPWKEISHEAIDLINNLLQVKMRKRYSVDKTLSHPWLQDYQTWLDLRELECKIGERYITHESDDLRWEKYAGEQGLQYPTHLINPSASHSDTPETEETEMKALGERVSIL

ITK = target: T18, ITK (Homo sapiens, UniProt Q08881)
T18 construct: purchased Carna Biosciences

CHK1 = target: T19, CHK1 (Homo sapiens, UniProt O14757)
T19 construct: purchased Carna Biosciences

EPHA2 = target: T20, EPHA2 (Homo sapiens, UniProt P29317)
T20 construct: purchased Carna Biosciences

JNK2 = target: T21, JNK2 (Homo sapiens, UniProt P45984)
T21 construct: purchased Carna Biosciences

RET(G691S) = target: T22, RET(G691S) (Homo sapiens, UniProt P07949, G691S)
T22 construct: purchased Carna Biosciences

ALK(L1196M) = target: T23, ALK(L1196M) (Homo sapiens, UniProt Q9UM73, L1196M)
T23 construct: purchased Carna Biosciences

BMX = target: T24, BMX (Homo sapiens, UniProt P51813)
T24 construct: purchased Carna Biosciences

AurA/TPX2 = target: T25, AurA/TPX2 (Homo sapiens, UniProt O14965)
T25 construct: purchased Carna Biosciences

RSK4 = target: T26, RSK4 (Homo sapiens, UniProt Q9UK32)
T26 construct: purchased Carna Biosciences

TRKC = target: T27, TRKC (Homo sapiens, UniProt Q16288)
T27 construct: purchased Carna Biosciences

MAP3K5_Cascade = target: T28, MAP3K5_Cascade (Homo sapiens, UniProt Q99683)
T28 construct: purchased Carna Biosciences

CDC7/ASK = target: T29, CDC7/ASK (Homo sapiens, UniProt O00311)
T29 construct: purchased Carna Biosciences

SGK3 = target: T30, SGK3 (Homo sapiens, UniProt Q96BR1)
T30 construct: purchased Carna Biosciences
T30 sequence (Q96BR1 whole entry): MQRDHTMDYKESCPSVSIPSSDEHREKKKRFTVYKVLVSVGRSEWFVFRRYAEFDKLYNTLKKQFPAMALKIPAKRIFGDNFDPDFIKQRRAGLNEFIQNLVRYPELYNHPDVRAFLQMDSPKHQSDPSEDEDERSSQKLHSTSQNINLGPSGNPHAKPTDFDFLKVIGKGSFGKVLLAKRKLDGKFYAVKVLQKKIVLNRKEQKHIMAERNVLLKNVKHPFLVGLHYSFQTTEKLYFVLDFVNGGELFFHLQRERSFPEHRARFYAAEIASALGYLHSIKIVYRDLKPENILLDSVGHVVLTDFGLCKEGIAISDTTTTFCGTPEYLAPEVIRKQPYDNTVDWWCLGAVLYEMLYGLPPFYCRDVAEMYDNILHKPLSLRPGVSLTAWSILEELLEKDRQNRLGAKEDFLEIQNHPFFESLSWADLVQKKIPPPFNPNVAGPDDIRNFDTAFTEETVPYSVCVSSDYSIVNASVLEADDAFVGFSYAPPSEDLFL

MRCKβ = target: T31, MRCKβ (Homo sapiens, UniProt Q9Y5S2)
T31 construct: purchased Carna Biosciences

GSK3β = target: T32, GSK3β (Homo sapiens, UniProt P49841)
T32 construct: purchased Carna Biosciences
T32 sequence (P49841 whole entry): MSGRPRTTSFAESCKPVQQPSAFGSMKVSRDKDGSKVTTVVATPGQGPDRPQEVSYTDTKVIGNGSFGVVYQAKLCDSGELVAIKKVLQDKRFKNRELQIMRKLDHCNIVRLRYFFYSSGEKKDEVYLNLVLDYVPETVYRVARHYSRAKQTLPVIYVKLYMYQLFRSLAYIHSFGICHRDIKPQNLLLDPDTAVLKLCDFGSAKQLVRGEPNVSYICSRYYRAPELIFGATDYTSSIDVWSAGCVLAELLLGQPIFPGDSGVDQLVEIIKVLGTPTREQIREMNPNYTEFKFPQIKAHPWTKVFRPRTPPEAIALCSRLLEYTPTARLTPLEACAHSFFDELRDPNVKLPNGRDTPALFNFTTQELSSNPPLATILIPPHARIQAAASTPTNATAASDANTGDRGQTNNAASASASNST

SkMLCK = target: T33, SkMLCK (Homo sapiens, UniProt Q9H1R3)
T33 construct: purchased Carna Biosciences

FLT3 = target: T34, FLT3 (Homo sapiens, UniProt P36888)
T34 construct: purchased Carna Biosciences
T34 sequence (P36888 27-993): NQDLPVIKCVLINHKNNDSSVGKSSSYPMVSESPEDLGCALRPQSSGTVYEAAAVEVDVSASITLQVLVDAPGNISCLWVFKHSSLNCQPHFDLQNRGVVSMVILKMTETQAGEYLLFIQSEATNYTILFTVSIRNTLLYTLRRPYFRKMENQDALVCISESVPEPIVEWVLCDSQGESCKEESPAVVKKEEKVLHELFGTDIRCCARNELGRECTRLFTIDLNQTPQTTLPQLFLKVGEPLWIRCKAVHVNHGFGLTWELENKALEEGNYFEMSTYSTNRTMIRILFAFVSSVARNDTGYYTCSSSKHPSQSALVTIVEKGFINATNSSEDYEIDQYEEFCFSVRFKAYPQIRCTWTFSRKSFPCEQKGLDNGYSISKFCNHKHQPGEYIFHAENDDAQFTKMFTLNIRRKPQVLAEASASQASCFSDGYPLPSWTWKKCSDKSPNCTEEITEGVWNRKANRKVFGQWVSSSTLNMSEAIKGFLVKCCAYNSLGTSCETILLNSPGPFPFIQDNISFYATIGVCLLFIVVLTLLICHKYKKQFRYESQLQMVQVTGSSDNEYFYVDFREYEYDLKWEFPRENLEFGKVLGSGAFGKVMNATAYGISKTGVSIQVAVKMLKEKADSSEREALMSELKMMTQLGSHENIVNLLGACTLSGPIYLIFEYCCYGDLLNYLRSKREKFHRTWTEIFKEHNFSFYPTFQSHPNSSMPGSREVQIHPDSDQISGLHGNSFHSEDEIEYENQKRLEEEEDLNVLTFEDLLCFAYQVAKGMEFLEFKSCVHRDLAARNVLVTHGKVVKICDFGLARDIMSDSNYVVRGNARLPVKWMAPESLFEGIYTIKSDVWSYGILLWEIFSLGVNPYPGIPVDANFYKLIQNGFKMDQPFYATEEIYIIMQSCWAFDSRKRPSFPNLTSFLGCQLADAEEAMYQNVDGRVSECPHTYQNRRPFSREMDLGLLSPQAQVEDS

MARK2 = target: T35, MARK2 (Homo sapiens, UniProt Q7KZI7)
T35 construct: purchased Carna Biosciences
T35 sequence (Q7KZI7 whole entry): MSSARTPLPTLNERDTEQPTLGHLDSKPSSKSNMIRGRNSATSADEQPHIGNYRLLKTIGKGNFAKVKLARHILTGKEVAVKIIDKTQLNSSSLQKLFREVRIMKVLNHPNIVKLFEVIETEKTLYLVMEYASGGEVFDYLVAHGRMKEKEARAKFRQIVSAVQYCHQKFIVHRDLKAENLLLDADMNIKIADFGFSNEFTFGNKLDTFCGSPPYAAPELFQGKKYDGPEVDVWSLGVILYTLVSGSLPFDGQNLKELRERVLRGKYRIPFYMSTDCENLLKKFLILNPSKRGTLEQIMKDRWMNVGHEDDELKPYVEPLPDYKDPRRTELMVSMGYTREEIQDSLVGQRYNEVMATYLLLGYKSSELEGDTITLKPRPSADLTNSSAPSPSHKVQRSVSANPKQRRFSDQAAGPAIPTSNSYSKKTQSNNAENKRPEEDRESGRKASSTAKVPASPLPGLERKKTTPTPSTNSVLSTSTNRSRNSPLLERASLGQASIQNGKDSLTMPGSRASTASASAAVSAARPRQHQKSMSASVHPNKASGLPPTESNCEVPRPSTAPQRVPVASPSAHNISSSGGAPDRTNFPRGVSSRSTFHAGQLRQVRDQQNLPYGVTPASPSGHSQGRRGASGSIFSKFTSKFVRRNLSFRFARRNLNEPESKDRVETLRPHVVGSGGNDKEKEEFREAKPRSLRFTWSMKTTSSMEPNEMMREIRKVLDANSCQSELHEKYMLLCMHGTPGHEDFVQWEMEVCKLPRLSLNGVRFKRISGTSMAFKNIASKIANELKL

TRKB = target: T36, TRKB (Homo sapiens, UniProt Q16620)
T36 construct: purchased Carna Biosciences

EGFR(L858R) = target: T37, EGFR(L858R) (Homo sapiens, UniProt P00533, L858R)
T37 construct: purchased Carna Biosciences

`C[C@@H]1CC[C@H]2C(C)(C)CCC[C@]2(C)c2c1oc1c(C=O)c(O)c(O)cc21` [LG-1, liphagal] was tested, and the inhibition at 10 µM (Erk1) was -4.4%, the inhibition at 10 µM (MNK1) was 5.3% and the inhibition at 10 µM (JAK3) was -7.2%. For the same molecule, the inhibition at 10 µM (MAP3K1_Cascade) was 26.4%, the inhibition at 10 µM (CaMK2δ) was 7.7% and the inhibition at 10 µM (FES) was 23.4%. For the same molecule, the inhibition at 10 µM (CK1y1) was 2.8%, the inhibition at 10 µM (LYNb) was 2.8% and the inhibition at 10 µM (AKT3) was 3.3%. The inhibition at 10 µM (NuaK1) was 6%, the inhibition at 10 µM (PDGF Ru(DB42V)) was 1.5% and the inhibition at 10 µM (RSK1) was 34.3%. It also gave an inhibition at 10 µM (DYRK3) of 39.2%, an inhibition at 10 µM (FTI1) of 10.4% and an inhibition at 10 µM (PIK3CA/PIK3R1) of 83.4%. It also gave an inhibition at 10 µM (KIT(V654A)) of 22.3%, an inhibition at 10 µM (PKACγ) of 18.7% and an inhibition at 10 µM (PKD1) of 4.2%. The inhibition at 10 µM (ITK) was -6.5%, the inhibition at 10 µM (CHK1) was -15.3% and the inhibition at 10 µM (EPHA2) was 2.6%. For the same molecule, the inhibition at 10 µM (JNK2) was 10.7%, the inhibition at 10 µM (RET(G691S)) was 14.8% and the inhibition at 10 µM (ALK(L1196M)) was -1.5%. It also gave an inhibition at 10 µM (BMX) of 6.5%, an inhibition at 10 µM (AurA/TPX2) of 12.2% and an inhibition at 10 µM (RSK4) of 7.4%. For the same molecule, the inhibition at 10 µM (TRKC) was 11.3%, the inhibition at 10 µM (MAP3K5_Cascade) was 38% and the inhibition at 10 µM (CDC7/ASK) was 26.2%. The inhibition at 10 µM (SGK3) was -0.5%, the inhibition at 10 µM (MRCKβ) was -1.9% and the inhibition at 10 µM (GSK3β) was 25.3%. The inhibition at 10 µM (SkMLCK) was -1.3%, the inhibition at 10 µM (FLT3) was 2.1% and the inhibition at 10 µM (MARK2) was 2.7%. The inhibition at 10 µM (TRKB) was 15.8% and the inhibition at 10 µM (EGFR(L858R)) was 4.2%.
